From paper PMC5028882, “Antiviral activities of peptide-based covalent inhibitors of the Enterovirus 71 3C protease” (Scientific Reports, 2016)
“Also recorded” adds a separate entry of the source. Like-named read-outs stand apart in the source and are kept apart here.

Columns and labels:
[1] = Parallel artificial membrane permeability assay (PAMPA); assay type: in vitro ADME; conditions: for Papp at 4 h, 50 μM: pH 7.4, 50 μM, 4 h incubation, read-out: Permeability (P) at pH 7.4
Protocol: PAMPA was conducted by GVK Biosciences (India) using Pion PAMPA Sandwich Plates (Pion Inc., USA). Briefly: test compounds were dissolved in buffer at pH 7.4 to make a 50 μM stock solution. 200 μL was then added to the donor compartment of the plate. The plate was inverted and 200 μL of buffer (pH 7.4) was added to the acceptor compartment. After incubation (4 hours), a 50 μL sample was analyzed by UV using a spectrophotometer. Experiments were conducted in triplicates. Compound permeability (P) was calculated using the formula:
where: CA = compound concentration in the acceptor compartment at 4 h, Ceq = compound concentration at equilibrium at 4 h, A = filter area (0.3 cm^2), VA = acceptor compartment volume (200 μL), VD = donor compartment volume (200 μL), t = incubation time (14,400 s). Compounds with a P value of <10 × 10^−6 cm.s^−1 are considered to have low permeability.

EV71 3C protease [2] = molecular target: T1, EV71 3C protease (Human enterovirus 71, UniProt Q66478); assay: EV71 3C protease inhibition assay (chromogenic substrate succinyl-EALFQ-pNA); assay type: biochemical; conditions: EV71 3C protease 6 μM, 2 h preincubation at 25 °C, pH 7.0; read-out: Inhibitory Potency, IC50
T1 sequence (Q66478 1549-1731): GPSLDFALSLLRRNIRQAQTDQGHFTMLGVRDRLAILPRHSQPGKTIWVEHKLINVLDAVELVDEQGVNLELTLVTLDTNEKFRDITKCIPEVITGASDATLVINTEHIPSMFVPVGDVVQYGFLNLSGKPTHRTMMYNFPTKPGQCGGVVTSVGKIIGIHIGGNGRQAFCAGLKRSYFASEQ
Protocol: EV71 3C protease inhibition assays were based on a published procedure[7] and performed in a buffer containing Tris-HCl (50 mM), NaCl (150 mM), EDTA (1 mM), glycerol (10% v/v) and DTT (2 mM) at pH 7.0. The protease (6 μM) and varying inhibitor concentrations were incubated at 25 °C for 2 h. The final DMSO concentration was maintained at 2%. After that, the chromogenic peptide substrate succinyl-EALFQ-pNA (Peptides International, USA) was added to make a final concentration of 200 μM. The contents were incubated at 25 °C for 2 h. Absorbance at 405 nm was measured with a plate reader at 30 °C. All experiments were conducted in duplicates. IC50 values were derived by fitting the initial velocity against the log [inhibitor] using GraphPad Prism 5 software (USA).

[3] = test system: EV71-infected human RD cells; assay: Antiviral cellular assay, EV71-infected RD cells, virus titre by plaque assay; assay type: cell-based, human enterovirus 71 (EV71); conditions: for Antiviral activity on EV71-infected RD cells (in words): virus titre reduction, up to 5 μM, 12 h; for EC50: Enterovirus A, read-out: EC50 for EV71 infections
Protocol: (§1) Human RD cells were cultured in DMEM/F-12 (Gibco) supplemented with 10% FBS (GE Healthcare) and the infection medium used for all infections and compound treatment contained was supplemented with 2% FBS. For the compound treatment assays, monolayers of RD cells were first infected with EV71 at a multiplicity of infection (MOI) of 1 for 1 hour at 37 °C, 5% CO2. The compounds were then introduced to the cells at different concentrations. Culture supernatant was collected at 12 hours post-treatment for determination of infectious virus titre by viral plaque assay. Each culture supernatant was 10-fold serially diluted and 100 μL was added, in triplicates, to a monolayer of RD cells in a 24-well format. The infection was allowed to proceed for 1 h at 37 °C, 5% CO2 before the virus was removed. The cells were then washed to remove unbound virus particles with PBS (pH 7.4) and overlaid with infection medium containing 0.5% agarose. The cells were incubated for 48 hours at 37 °C before they were fixed with 4% paraformaldehyde and stained with crystal violet. Plaques that formed were counted visually and the infectious virus titre was calculated, expressed as the average number of PFU per milliliter (PFU/mL) of sample. The 50% effective concentration, EC50, was determined for selected compounds by a non-linear regression graph fitting of the virus titre obtained at a minimum of 5 different compound concentrations and 0.05% DMSO was included as an untreated control.

EV71 3C protease [4] = molecular target: T1, EV71 3C protease; conditions: cited from earlier work; for IC50: EV71 3C protease (strain 5865/sin/000009), biochemical protease inhibition assay, read-out: Inhibitory Potency, IC50
[5] = test system: Coxsackievirus A16 (CA16); assay: Antiviral assay, Coxsackievirus A16-infected RD cells; assay type: cell-based; conditions: 100 nM and 1 μM, virus titre after 12 hours
Protocol: (§2) RD cells were infected with either Coxsackievirus A6 (CA6), Coxsackievirus A16 (CA16) (strain G-10, GenBank accession no. U05876), patient isolates of Coxsackievirus A6 (CA6), or Echovirus 7 (E7) and subjected to treatment with compound 9 at 100 nM or 1 μM or negative control 0.05% DMSO.
as §1, with “The cells were incubated for 48 hours at 37 °C before they were fixed with 4% paraformaldehyde and stained with crystal violet.” left out, “The 50% effective concentration, EC50, was determined for selected compounds by a non-linear regression graph fitting of the virus titre obtained at a minimum of 5 different compound concentrations and 0.05% DMSO was included as an untreated control.” left out

Echovirus 7 (E7) = assay: Antiviral assay, Echovirus 7-infected RD cells; assay type: cell-based; conditions: 100 nM and 1 μM, virus titre after 12 hours
Protocol: as §2
as §1, with “The cells were incubated for 48 hours at 37 °C before they were fixed with 4% paraformaldehyde and stained with crystal violet.” left out, “The 50% effective concentration, EC50, was determined for selected compounds by a non-linear regression graph fitting of the virus titre obtained at a minimum of 5 different compound concentrations and 0.05% DMSO was included as an untreated control.” left out

Coxsackievirus A6 (CA6) = assay: Antiviral assay, Coxsackievirus A6-infected RD cells; assay type: cell-based; conditions: 100 nM and 1 μM, virus titre after 12 hours
Protocol: as §2
as §1, with “The cells were incubated for 48 hours at 37 °C before they were fixed with 4% paraformaldehyde and stained with crystal violet.” left out, “The 50% effective concentration, EC50, was determined for selected compounds by a non-linear regression graph fitting of the virus titre obtained at a minimum of 5 different compound concentrations and 0.05% DMSO was included as an untreated control.” left out

| SMILES | Papp at 4 h, 50 μM [1] | IC50 (EV71 3C protease [2]) | Antiviral activity on EV71-infected RD cells (in words) [3] | also measured |
| --- | --- | --- | --- | --- |
| CCOC(=O)/C=C/[C@H](C[C@@H]1CCNC1=O)NC(=O)[C@@H](CC(=O)[C@@H](NC(=O)c1nnccc1C)C(C)C)Cc1ccc(F)cc1 [Compound 7, ethyl-(S,E)-4-(2R,5S)-2-(4-fluorobenzyl)-6-methyl-5-(4-methylpyridazine-3-carboxamido)-4-oxoheptanamido-5-(S)-2-oxopyrrolidin-3-yl-pent-2-enoate] | 11.6 ± 2.3 ×10⁻⁶ cm/s | 5.2 ± 1 µM | inferior compared to Rupintrivir; also recorded: failed to demonstrate significant antiviral activity |  |
| CCOC(=O)/C=C/[C@H](C[C@@H]1CCNC1=O)NC(=O)[C@@H]1[C@@H](c2ccccc2)CCN1C(=O)[C@@H](NC(=O)c1cc(C)on1)C(C)C [Compound 2] | 7.1 ± 0.9 ×10⁻⁶ cm/s |  | failed to demonstrate significant antiviral activity; also recorded: weakly active | IC50 (EV71 3C protease [4]): 3.2 ± 0.5 µM; Fold more potent than Rupintrivir in the protease inhibition assay (EV71 3C protease [4]; IC50 compared with Rupintrivir): 2 fold; Fold less permeable than Rupintrivir ([1]; pH 7.4): approximately 7 fold |
| CCOC(=O)/C=C/[C@H](C[C@@H]1CCNC1=O)NC(=O)[C@@H](CC(=O)[C@@H](NC(=O)c1ccc(C)nn1)C(C)C)Cc1ccc(F)cc1 [Compound 8, ethyl-(S,E)-4-(2R,5S)-2-(4-fluorobenzyl)-6-methyl-5-(6-methylpyridazine-3-carboxamido)-4-oxoheptanamido-5-(S)-2-oxopyrrolidin-3-yl-pent-2-enoate] | 12.6 ± 0.7 ×10⁻⁶ cm/s | 3.7 ± 0.6 µM | inferior compared to Rupintrivir; also recorded: failed to demonstrate significant antiviral activity |  |
| CCOC(=O)/C=C/[C@H](C[C@@H]1CCNC1=O)NC(=O)[C@@H](CC(=O)[C@@H](NC(=O)C(C)(C)C)C(C)C)Cc1ccc(F)cc1 [Compound 10, ethyl-(S,E)-4-(2R,5S)-2-(4-fluorobenzyl)-6-methyl-4-oxo-5-pivalamidoheptanamido-5-(S)-2-oxopyrrolidin-3-yl-pent-2-enoate] | 15 ± 2.6 ×10⁻⁶ cm/s | > 100 µM | abrogation of both biochemical and cellular activity |  |
| CCOC(=O)/C=C/[C@H](C[C@@H]1CCNC1=O)NC(=O)[C@@H](CC(=O)[C@@H](NC(=O)c1cccnc1)C(C)C)Cc1ccc(F)cc1 [Compound 6, ethyl-(S,E)-4-(2R,5S)-2-(4-fluorobenzyl)-6-methyl-5-nicotinamido-4-oxoheptanamido-5-(S)-2-oxopyrrolidin-3-yl-pent-2-enoate] | 16.9 ± 5.2 ×10⁻⁶ cm/s | > 100 µM | did not exhibit significant antiviral activity |  |
| CCOC(=O)/C=C/[C@H](C[C@@H]1CCNC1=O)NC(=O)[C@@H](CC(=O)[C@@H](NC(=O)c1ccccn1)C(C)C)Cc1ccc(F)cc1 [Compound 5, ethyl-(S,E)-4-(2R,5S)-2-(4-fluorobenzyl)-6-methyl-4-oxo-5-picolinamidoheptanamido-5-(S)-2-oxopyrrolidin-3-yl-pent-2-enoate] | 14.9 ± 3.3 ×10⁻⁶ cm/s | 22.4 ± 3.5 µM | did not exhibit significant antiviral activity |  |
| CCOC(=O)/C=C/[C@H](C[C@@H]1CCNC1=O)NC(=O)[C@H](Cc1ccc(F)cc1)NC(=O)[C@@H](NC(=O)c1cc(C)on1)C(C)C [Compound 3] | 25.1 ± 3.6 ×10⁻⁶ cm/s | 6.2 ± 0.6 µM | significantly less potent than Rupintrivir | Fold less permeable than Rupintrivir ([1]; pH 7.4): approximately 2 fold |
| CCOC(=O)/C=C/[C@H](C[C@@H]1CCNC1=O)NC(=O)[C@@H](CC(=O)[C@@H](NC(=O)c1cc(C)on1)C(C)C)Cc1ccc(F)cc1 [Compound 1, Rupintrivir, reference compound] | 46.9 ± 4.7 ×10⁻⁶ cm/s |  | significant reduction in viral titre | IC50 (EV71 3C protease [4]): 7.3 ± 0.8 µM; Inhibition of EV71 3C protease (in words) (EV71 3C protease [4]; earlier reports): micromolar potency; Antiviral activity against Coxsackievirus A16 (in words) [5]: demonstrated antiviral activities; Antiviral activity against Echovirus 7 (in words) (Echovirus 7 (E7)): demonstrated antiviral activities; Membrane permeability (in words) ([1]; pH 7.4): highly membrane permeable; Antiviral activity against Coxsackievirus A6 (in words) (Coxsackievirus A6 (CA6)): demonstrated antiviral activities; EC50 ([3]; EV71-infected RD cells, virus titre by plaque assay): 0.016 µM |
| CCOC(=O)/C=C/[C@H](C[C@@H]1CCNC1=O)NC(=O)[C@@H](CC(=O)[C@@H](NC(=O)C(C)C)C(C)C)Cc1ccc(F)cc1 [Compound 11, ethyl-(S,E)-4-(2R,5S)-2-(4-fluorobenzyl)-5-isobutyramido-6-methyl-4-oxoheptanamido-5-(S)-2-oxopyrrolidin-3-yl-pent-2-enoate] | 16.9 ± 0.8 ×10⁻⁶ cm/s | 11.7 ± 0.7 µM | significantly reduced antiviral activity |  |
| CCOC(=O)/C=C/[C@H](C[C@@H]1CCNC1=O)NC(=O)[C@@H](CC(=O)[C@@H](NC(=O)c1cccnn1)C(C)C)Cc1ccc(F)cc1 [Compound 4, ethyl-(S,E)-4-(2R,5S)-2-(4-fluorobenzyl)-6-methyl-4-oxo-5-pyridazine-3-carboxamidoheptanamido-5-(S)-2-oxopyrrolidin-3-yl-pent-2-enoate] | 12.6 ± 1.8 ×10⁻⁶ cm/s | 9.3 ± 0.6 µM | significantly reduced |  |
| CCOC(=O)/C=C/[C@H](C[C@@H]1CCNC1=O)NC(=O)[C@@H](CC(=O)[C@@H](NC(=O)C(F)(F)F)C(C)C)Cc1ccc(F)cc1 [Compound 9] | 32.7 ± 6.7 ×10⁻⁶ cm/s | 7.7 ± 0.8 µM | exhibited antiviral activity; also recorded: potent antiviral activity | Antiviral activity against Coxsackievirus A16 (in words) [5]: potent antiviral activity; also recorded: demonstrated antiviral activities; Antiviral activity against Echovirus 7 (in words) (Echovirus 7 (E7)): potent antiviral activity; also recorded: demonstrated antiviral activities; Antiviral activity against Coxsackievirus A6 (in words) (Coxsackievirus A6 (CA6)): potent antiviral activity; also recorded: demonstrated antiviral activities; EC50 ([3]; EV71, RD): 0.065 µM |
